Data taken from US20250034186A1, “ANTIVIRAL COMPOUNDS” (priority 2020, published 2025).

Legend:
[1] = tested on: Dengue serotype 2 New Guinea C (NGC) strain; experiment: DENV-2 Huh-7 EC50; assay type: cell-based; details: Dengue virus, Huh7 cells, 48 hours, qPCR
Method: Huh7 (Human hepatocarcinoma 7) cells were maintained in 10% FCS-containing DMEM complete media. On the day of the assay, cells were trypsinized (0.1% Trypsin-EDTA), washed and infected for 2 hours in serum-free DMEM with Dengue serotype 2 New Guinea C (NGC) strain at MOI=0.1 with gentle agitation at 37° C. After 2 hours, cells were washed with serum-free media and suspended in 10% FCS-containing DMEM (Gibco, supplemented with sodium pyruvate, NEAA, Penicillin-Streptomycin). […] were plated in triplicate in 96-well plates with compounds dispensed at graded doses (Hewlett-Packard D300 Digital Dispenser). All wells were normalized to 0.25% DMSO. At 48 hours, cells were washed with 1×PBS and all supernatants removed. Total RNA was extracted using RNEasy 96 plates (Qiagen) and used to generate first-strand cDNA using XLT cDNA 5× Supermix (QuantaBio). cDNA was used as a template in a Taqman qPCR duplex reaction specific to DENV2 viral and GAPDH gene expression. EC50 values were determined using Prism Graphpad software, with normalization to a positive control and no compound negative control wells.

[2] = tested on: Dengue 2, New Guinea strain (NGC); experiment: DENV-2 moDC EC50; assay type: cell-based; details: Dengue virus, Dendritic cell; human monocyte-derived dendritic cells, 48 hours, qPCR
Method: Human monocyte-derived dendritic cells (moDCs) were derived from CD14+ monocytes (AllCells) cultured in Human Mo-DC Differentiation medium containing GM-CSF and IL-4 (Miltenyi Biotec). On day 7, moDCs were harvested by mechanical disruption, washed and suspended in serum-free RPMI. moDCs were infected with Vero-derived Dengue 2, New Guinea strain (NGC) at a MOI=0.1 for two hours in serum-free RPMI with gentle agitation at 37° C. Cells were washed and resuspended in 10% serum-containing RPMI (Gibco, supplemented with sodium pyruvate, NEAA, Penicillin-Streptomycin). 10^5 cells were plated in triplicate in 96-well plates with compounds dispensed at graded doses (Hewlett-Packard D300 Digital Dispenser). All wells were normalized to 0.25% DMSO. At 48 hours, cells were washed with 1×PBS and all supernatants removed. Total RNA was extracted using RNEasy 96 plates (Qiagen) and used to generate first-strand cDNA using XLT cDNA 5× Supermix (QuantaBio). cDNA was used as a template in a Taqman qPCR duplex reaction specific to DENV2 viral and GAPDH gene expression. EC50 values were determined using Prism Graphpad software, with normalization to a positive control and no compound negative control wells.

`C[C@H](N[P@](=O)(OC[C@@]1(C#N)O[C@@H](c2ccc3c(N)ncnn23)[C@H](O)[C@@H]1O)Oc1ccccc1)C(=O)OC1CCCCC1` [Formula I, cyclohexyl ((S)-(((2R,3S,4R,5S)-5-(4-aminopyrrolo[2,1-f][1,2,4]triazin-7-yl)-2-cyano-3,4-dihydroxytetrahydrofuran-2-yl)methoxy)(phenoxy)phosphoryl)-L-alaninate] gave an EC50 [1] of 1630 nM and an EC50 [2] greater than 6190 nM.
